From US7250396B2, “Juvenile hormone compositions and methods for making same” (priority 2003, dated 2007)

How the values were obtained:
[1] = tested on: 16 day Indian Meal Moth larvae; test: Exposure of 16 day larvae to methoprene for varying periods of time; type: in vivo, Plodia Interpunctella; settings: 1000 wppm MP
Protocol: An experiment was set up to determine the effect of exposing 16 day Indian Meal Moth larvae to methoprene for varying periods of time. The treatment levels tested were control at 0 wppm methoprene and 1000 wppm methoprene. Five larvae (3 females, 2 males) per sample were added to paper treated with the coating composition described in Example 1. The larvae were exposed to the samples for different amount of time. The times of exposure were 0 hrs., 20 min., 1 hr., 2 hrs., 4 hrs., 8 hrs., and 24 hrs. After larvae were exposed for the set amount of time, they were placed in an incubator (Precision Model No. 815) at 80° F. (27° C.) and at a relative humidity of 60 percent, where they were allowed to pupate, become adults, and reproduce. Observations were obtained throughout a 16 day period. From when adults hatched, the number of adults were counted and averaged over the remainder of the experiment. The number of new eggs were also counted and the average number of eggs per adult was calculated. Generally, egg production decreased as treatment levels increased.

[2] = tested on: day 16 larvae of the Indian Meal Moth, Plodia Interpunctella; test: Effect of methoprene at low concentrations: day 16 larvae on treated paper (behavior, webbing, survival over 19 days); type: in vivo
Protocol: An experiment was set up to determine the effectiveness of methoprene at very low concentrations on day 16 larvae of the Indian Meal Moth, Plodia Interpunctella. The concentrations tested ranged from the control at 0 wppm to 1000 wppm increasing by increments of 10×. Ten larvae per sample were added to the treated paper and exposed throughout the experiment in an incubator (Precision Model No. 815) at 80° F. (27° C.) and at a relative humidity of 60 percent. Behavior, webbing characteristics and survival rates were observed over 19 days.
The coating formulation components (excluding methoprene) and preparation procedure are described in Table 1, below.
As the Benzophenone was added to the mixture in step 7, above, the mixture was stirred in a mixer at 1500 rpm and at a temperature of 70° F. (21° C.) until the benzophenone was dissolved. As the methoprene was added to the mixture in step 8, above, the mixture was stirred in a mixer at 1500 rpm and at a temperature of 89° F. (32° C.).

[3] = tested on: Indian Meal Moth adults; test: Adult exposure to liquid methoprene in a UV coating: egg production and viability; type: in vivo, Plodia Interpunctella; settings: for Total Percent Reduction: compared to the control; for Total No. of Eggs: eggs collected over 8 days; for Total No. of Viable Eggs: eggs that hatched
Protocol: An experiment was set up to determine how egg production would be affected when Indian Meal Moth adults were exposed to liquid methoprene in a UV coating. Adults were allowed to emerge into jars lined with treated paper. The treatment levels tested were a control at 0 wppm to 1000 wppm increasing by increments of 10×. A combination treatment of liquid methoprene at 1000 wppm and 1 weight percent diatomaceous earth was also tested. The eggs produced fell to a treated surface before being collected and placed into rearing food. Observations and egg collections were taken over a […] period.
The adults came from stock insects and the number exposed per treatment was not predetermined. The total number of eggs represents all eggs per treatment collected over 8 days. The total number of viable eggs represents the number of eggs that hatched. These larvae were allowed to feed for 14 days before counting.

COC(C)(C)CCCC(C)C/C=C/C(C)=C/C(=O)OC(C)C (centres unmarked) [methoprene, isopropyl-(2E, 4E)-11-methoxy-3,7,11-trimethyl-2,4-dodecadienoate]
Average No. of Adults/Day ([1]; time exposed 20 min.): 10
Average No. of Eggs/Adult ([1]; time exposed 20 min.): 34
Average No. of Adults/Day ([1]; time exposed 1 hr.): 12
Average No. of Eggs/Adult ([1]; time exposed 1 hr.): 30
Average No. of Adults/Day ([1]; time exposed 2 hrs.): 12
Average No. of Eggs/Adult ([1]; time exposed 2 hrs.): 19
Average No. of Adults/Day ([1]; time exposed 4 hrs.): 10
Average No. of Eggs/Adult ([1]; time exposed 4 hrs.): 25
Average No. of Adults/Day ([1]; time exposed 8 hrs.): 9
Average No. of Eggs/Adult ([1]; time exposed 8 hrs.): 17
Average No. of Adults/Day ([1]; time exposed 24 hrs.): 7
Average No. of Eggs/Adult ([1]; time exposed 24 hrs.): 9
SURVIVAL RATE ([2]; 1 wppm methoprene in coating, day 4): 8 number of larvae surviving out of 10 larvae
SURVIVAL RATE ([2]; 1 wppm methoprene in coating, day 7): 7 number of larvae surviving out of 10 larvae
SURVIVAL RATE ([2]; 1 wppm methoprene in coating, day 11): 6 number of larvae surviving out of 10 larvae
SURVIVAL RATE ([2]; 1 wppm methoprene in coating, day 13): 5 number of larvae surviving out of 10 larvae
SURVIVAL RATE ([2]; 1 wppm methoprene in coating, day 19): 1 number of larvae surviving out of 10 larvae
SURVIVAL RATE ([2]; 10 wppm methoprene in coating, day 4): 8 number of larvae surviving out of 10 larvae
SURVIVAL RATE ([2]; 10 wppm methoprene in coating, day 7): 8 number of larvae surviving out of 10 larvae
SURVIVAL RATE ([2]; 10 wppm methoprene in coating, day 11): 7 number of larvae surviving out of 10 larvae
SURVIVAL RATE ([2]; 10 wppm methoprene in coating, day 13): 7 number of larvae surviving out of 10 larvae
SURVIVAL RATE ([2]; 10 wppm methoprene in coating, day 19): 2 number of larvae surviving out of 10 larvae
SURVIVAL RATE ([2]; 100 wppm methoprene in coating, day 4): 6 number of larvae surviving out of 10 larvae
SURVIVAL RATE ([2]; 100 wppm methoprene in coating, day 7): 4 number of larvae surviving out of 10 larvae
SURVIVAL RATE ([2]; 100 wppm methoprene in coating, day 11): 1 number of larvae surviving out of 10 larvae
SURVIVAL RATE ([2]; 100 wppm methoprene in coating, day 13): 1 number of larvae surviving out of 10 larvae
SURVIVAL RATE ([2]; 100 wppm methoprene in coating, day 19): 1 number of larvae surviving out of 10 larvae
SURVIVAL RATE ([2]; 1000 wppm methoprene in coating, day 4): 7 number of larvae surviving out of 10 larvae
SURVIVAL RATE ([2]; 1000 wppm methoprene in coating, day 7): 5 number of larvae surviving out of 10 larvae
SURVIVAL RATE ([2]; 1000 wppm methoprene in coating, day 11): 3 number of larvae surviving out of 10 larvae
SURVIVAL RATE ([2]; 1000 wppm methoprene in coating, day 13): 3 number of larvae surviving out of 10 larvae
SURVIVAL RATE ([2]; 1000 wppm methoprene in coating, day 19): 0 number of larvae surviving out of 10 larvae
Behavior ([2]; exposed larvae, as early as day 4 of the testing period, increased nipping and cannibalism): showed signs of aggression
Webbing characteristics ([2]; larvae exposed to 1 wppm methoprene): slightly thicker throughout the dish than the control
Webbing characteristics ([2]; larvae exposed to 10 wppm methoprene): thicker, more centralized webbing
Webbing characteristics ([2]; larvae exposed to 10 wppm methoprene (second mention, compared with the 10 wppm sample)): dense and more centralized than the 10 wppm methoprene sample
Webbing characteristics ([2]; larvae exposed to 1000 wppm methoprene): completely centralized mound of webbing
survival rate compared to the control sample ([2]; treatment levels as low as 1 wppm): significant decrease in survival rate
Percent Viable Eggs ([3]; 10 wppm MP): 7.5%
Total Percent Reduction ([3]; 10 wppm MP): 85.6%
Total No. of Eggs ([3]; 10 wppm MP): 1430
Total No. of Viable Eggs ([3]; 10 wppm MP): 108
Percent Viable Eggs ([3]; 100 wppm MP): 18%
Total Percent Reduction ([3]; 100 wppm MP): 65.4%
Total No. of Eggs ([3]; 100 wppm MP): 1285
Total No. of Viable Eggs ([3]; 100 wppm MP): 234
Percent Viable Eggs ([3]; 1000 wppm MP): 36%
Total Percent Reduction ([3]; 1000 wppm MP): 30.8%
Total No. of Eggs ([3]; 1000 wppm MP): 1190
Total No. of Viable Eggs ([3]; 1000 wppm MP): 432
